From patent US12686666B2, “Triazine compound salt, crystal form thereof, and production method therefor” (TANABE PHARMA CORPORATION, priority 2020, dated 2026)

Assays:
[1] = Chemical stability evaluation (storage 1 week, liquid chromatography peak area %); format: physicochemical; conditions: did not show a significant increase of related substances
Description: Each about 1 mg of a sample stored at 60° C. (sealed) or 60° C./75% RH (open) for 1 week and an unstored sample (at the start of test) was dissolved into a mixed solution of acetonitrile/water (1:1) (5 mL) to obtain each sample solution. A test was carried out by liquid chromatographic method under the following conditions to measure each peak area (%).
Each peak area (%) was measured by using Waters ACQUITY UPLC under the following conditions. • Detector: Photodiode array (measurement wavelength: 239 nm) • Column: Waters ACQUITY BEH C18 (2.1 mm×100 mm, 1.7 μm) • Column temperature: constant temperature about 40° C. • Mobile phase: Solution A; water/TFA (2000:1), Solution B; Acetonitrile/TFA (2000:1) • Concentration gradient control: B % 2→100% (15 minutes) • Flow rate: 0.5 mL/min • Injection volume: 2 μL
Each sample was stored at 60° C. under a sealed condition and at 60° C. under 75% RH for 1 week, and an increase or decrease of related substance(s) after the storage was calculated by high-performance liquid chromatographic method on the basis of the area percentage of each peak. Also, the condition of each sample after the storage was observed.

[2] = Thermal stability evaluation (TG/DTA weight change); format: physicochemical; conditions: for Thermal stability TG: weight change: 25-274° C.
Description: (§1) Thermal stability was measured and evaluated by using a thermogravimetry/differential thermal analyzer TG/DTA7200 (SII NanoTechnology Inc.) under the following conditions. • Rate of temperature increase: 10° C./min • Range of temperature increase: 25 to 300° C. • Atmosphere: nitrogen 200 mL/min <Hygroscopicity or Deliquescency Evaluation>
as §1, with “Inc.) under the following conditions • Rate of temperature increase: 10° C./min • Range of temperature increase: 30 to 300° C. • Atmosphere: nitrogen 200 mL/min • or • using a TGA/DSC1 thermogravimetric analyzer (manufactured by Mettler Toledo, STARe system)” for “Inc.)”, “nitrogen 50” for “nitrogen 200”

[3] = Pharmacokinetics in dogs treated with a promotor (pentagastrin) or an inhibitor (omeprazole) of gastric acid secretion; format: in vivo, dogs (male beagle); conditions: dog; for Cmax / AUC(0-inf) / AUC(0-t) / Tmax / half-life: male, beagle, plasma, po, 10 mg, fasted, mean; for Cmax: oral 10 mg/capsule (free form equivalent); for AUC(0-inf) / AUC(0-t) / Tmax / half-life: oral 10 mg/capsule
Description: The pharmacokinetics of hydrobromide of the Triazine compound A and the Triazine compound A under gastric acid secretion and gastric pH adjustment was evaluated by using dogs treated with a promotor of gastric acid secretion or an inhibitor of gastric acid secretion according to a crossover method of 2 groups with 4 phases.
Pentagastrin was used in the treatment of a promotor of gastric acid secretion. Pentagastrin (2.8 mg) was dissolved into dimethylsulfoxide (7.0 mL) and water for injection (7.0 mL) to prepare an administration solution, and administered into a muscle in the thigh at a dose of […]. Pentagastrin was administered 0.5 hour before and 0.5 hour after the administration of each test material (hydrobromide of the Triazine compound A (Compound 1 prepared in Example 1) or the Triazine compound A (Compound 10 prepared in Example 1)). Omeprazole was used in the treatment of an inhibitor of gastric acid secretion. Omeprazole (90 mg) was dissolved into a 1:1 mixed solution (22.5 mL) of a 0.1% aqueous solution of sodium hydrogen carbonate (w/v) and polyethyleneglycol 400 to prepare an administration solution, and administered into a saphenous vein of the hind limb at a dose of 1 mg/0.25 mL/kg. Omeprazole was administered 1 hour before the administration of each test material.
After 25 mL of water for injection was administered to each dog by using a syringe having an oral catheter, the hydrobromide of the Triazine compound A or the Triazine compound A was forcedly orally administered to each dog at a dose of 10 mg/capsule (in case of hydrobromide of the Triazine compound A, free form equivalent (i.e., 10 mg in terms of the Triazine compound A)), and additional 25 mL of water for injection was administered to each dog through the syringe having an oral catheter. Each test material was administered under fasting state, and each dog was fed 6 hours after the administration. Each dog was deprived of water from 1 hour before the administration of each test material to 2 hours after the administration.
Tests were carried out by using 6 heads of 4 year-old male beagle and dividing them into two groups, each of which comprises 3 heads. The dogs in Group 1 were subjected to the administration in the order of (Phase 1) omeprazole administration, then the Triazine compound A administration, (Phase 2) omeprazole administration, then the hydrobromide of the Triazine compound A administration, (Phase 3) pentagastrin administration, then the Triazine compound A administration, and (Phase 4) pentagastrin administration, then the hydrobromide of the Triazine compound A administration, and the dogs in Group 2 were subjected to the administration in the order of (Phase 1) omeprazole administration, then the hydrobromide of the Triazine compound A administration, (Phase 2) omeprazole administration, then the Triazine compound A administration, (Phase 3) pentagastrin administration, then the hydrobromide of the Triazine compound A administration, and (Phase 4) pentagastrin administration, then the Triazine compound A administration, and washout period between each phase was 6 or 7 days. After 15 minutes, 30 minutes, 1, 2, 4, 6, 8, and 24 hour(s) from the administration of the hydrobromide of the Triazine compound A or the Triazine compound A, 0.6 mL of whole blood sample was collected under awakening of each dog from a cephalic vein by using a heparin sodium injection. The whole blood sample was processed into a plasma, and the drug concentration of the Triazine compound A was analyzed by using liquid chromatography-tandem mass spectrometry (LC-MS/MS). […]

[4] = Hygroscopicity or deliquescency evaluation (moisture adsorption, DVS); format: physicochemical
Description: Hygroscopicity or deliquescency was evaluated as follows by using a moisture adsorption measurement device DVS-1 or DVS-intrinsic (Surface Measurement Systems Limited). Each sample (about 5 mg) was placed into an aluminum plate of which the tare weight had been corrected in advance, and the plate was hung on the precision balance of said device to precisely measure the weight at the start of measurement. The humidity was changed in a stepwise manner in a chamber at 25° C., the weight change was recorded with time, and the equilibrium weight was calculated at each humidity. On the basis of the weight at a dried condition (0% RH), the weight change rate and hydration number at each humidity were calculated.
Hygroscopicity or deliquescency was evaluated as follows by using a moisture adsorption measurement device DVS-1 or DVS-intrinsic (Surface Measurement Systems Limited). Each sample was placed into a cell of which the tare weight had been corrected in advance, and the cell was hung on the precision balance of said device to precisely measure the weight at the start of measurement. The humidity was changed in a stepwise manner, the weight change was recorded with time, and the equilibrium weight was calculated at each humidity. On the basis of the weight of anhydride converted from the amount of water at a dried condition (0% RH) or at the start of measurement observed by an alternative method, the weight change rate at each humidity was calculated.

[5] = target: T1, human CYP11B2 (Homo sapiens, UniProt P19099); assay: Aldosterone synthase (CYP11B2) inhibitory activity measurement; format: biochemical; conditions: mitochondrial fraction of V79 cells expressing human CYP11B2; deoxycorticosterone substrate; HTRF; read-out: IC50 (aldosterone production inhibition)
T1 construct: expressed in transfected cells; the mitochondrial fraction was used
T1 sequence (P19099 25-503): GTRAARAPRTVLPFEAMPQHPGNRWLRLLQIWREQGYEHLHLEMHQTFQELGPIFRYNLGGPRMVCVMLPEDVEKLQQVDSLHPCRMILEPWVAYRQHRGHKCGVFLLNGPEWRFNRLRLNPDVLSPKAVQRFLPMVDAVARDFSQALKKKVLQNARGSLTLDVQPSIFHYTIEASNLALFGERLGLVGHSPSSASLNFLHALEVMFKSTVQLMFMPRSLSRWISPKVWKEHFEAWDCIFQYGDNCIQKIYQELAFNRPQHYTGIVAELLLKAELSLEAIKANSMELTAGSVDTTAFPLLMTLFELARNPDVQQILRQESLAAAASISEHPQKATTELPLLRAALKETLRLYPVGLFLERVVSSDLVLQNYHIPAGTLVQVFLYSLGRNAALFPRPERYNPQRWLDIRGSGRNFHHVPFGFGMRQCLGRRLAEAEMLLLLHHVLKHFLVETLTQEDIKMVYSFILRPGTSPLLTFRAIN
Description: The pcDNA3.1-human CYP11B2 plasmid was transfected into a Chinese hamster lung fibroblast V79 cell line to produce a cell line stably expressing a human CYP11B2 gene.
The cells were cultured and grown in the Dulbecco's modified Eagle's/Ham's medium supplemented with 10% fetal bovine serum and 1% G418 disulfate solution under the environment of 37° C., 95% air, and 5% CO2, and the grown cells were harvested.
Then, the cells were fractionated to obtain mitochondria by reference to a method described in Chabre et al. JCE & M 85 (11) 4060-68, 2000. In particular, the cells suspended in a 5 mmol/L Tris-HCl buffer (pH 7.4) containing 250 mmol/L sucrose were homogenized in a Teflon (registered trademark) Potter Elvehjem homogenizer, and then the suspension was centrifuged (800×g, 15 min). […]
The mitochondrial fraction diluted with a buffer containing 10 mmol/L KH2PO4, 10 mmol/L Tris, 20 mmol/L KCl, 25 mmol/L sucrose, 5 mmol/L MgCl2, and 0.05% bovine serum albumin was dispensed to a 96 well plate. […] The amount of the produced aldosterone in the incubated solution was determined by using HTRF (Homogeneous Time Resolved Fluorescence) method.
IC50 (nmol/L) was calculated by analyzing the aldosterone production inhibition rate (%) of each concentration of the Triazine compound A of the present invention by non-linear regression to a logistic curve.

[6] = Omeprazole, reduced gastric acid secretion
[7] = Pentagastrin, increased gastric acid secretion

SMILES | Cmax [3, 6] | Cmax [3, 7] | AUC(0-inf) [3, 6] | AUC(0-t) [3, 6] | Tmax [3, 6] | half-life [3, 6] | AUC(0-inf) [3, 7] | AUC(0-t) [3, 7] | Tmax [3, 7] | half-life [3, 7] | other results
Br.CC(=O)N[C@H]1CC[C@H](NC(=O)CN2CCN(c3nncc(-c4ccc(C)cc4)n3)CC2)CC1 [Hydrobromide Form A crystal, 3-[4-[[trans-4-(acetamino)cyclohexyl]carbamoylmethyl]piperazin-1-yl]-5-(p-tolyl)-1,2,4-triazine hydrobromide] | 0.256 µg/mL | 0.263 µg/mL | 2.03 µg·h/mL | 1.99 µg·h/mL | 1.83 h | 4.3 h | 2.02 µg·h/mL | 1.99 µg·h/mL | 1.67 h | 4.24 h | Chemical stability, conclusion in words [1]: excellent chemical stability; Thermal stability TG: weight change [2]: 0.9%; Thermal stability TG: weight change ([2]; Table 10): 0.98; Thermal stability, conclusion in words ([2]; did not show a significant weight change (Succinate Form A: at 25 to 148° C., melting point)): excellent thermal stability; Change of plasma concentration with the gastric acid conditions ([3]; oral 10 mg free form equivalent, pentagastrin vs omeprazole): not changed; Hygroscopicity or Deliquescency Weight change at 90% RH ([4]; Table 5, 25° C., relative to weight at 0% RH): 1.0%; Hygroscopicity or Deliquescency Weight change at 90% RH ([4]; Table 10, *1 with hydration stage): 1.0% ^; Hygroscopicity or deliquescency, conclusion in words ([4]; from Table 5): excellent in the reduced hygroscopicity or deliquescency
CC(=O)N[C@H]1CC[C@H](NC(=O)CN2CCN(c3nncc(-c4ccc(C)cc4)n3)CC2)CC1 [Triazine compound A, 3-[4-[[trans-4-(acetamino)cyclohexyl]carbamoylmethyl]piperazin-1-yl]-5-(p-tolyl)-1,2,4-triazine] | 0.102 µg/mL | 0.222 µg/mL | 1 µg·h/mL | 0.943 µg·h/mL | 3.33 h | 5.6 h | 1.91 µg·h/mL | 1.69 µg·h/mL | 1.42 h | 4.26 h | IC50 [5]: 9 nM; Reduction of AUC under reduced gastric acid conditions as compared to increased gastric acid secretion conditions ([3]; oral 10 mg): about 50%; Reduction of Cmax under reduced gastric acid conditions as compared to increased gastric acid secretion conditions ([3]; oral 10 mg): about 50%
